System: Energy system protein genes
Assay: DNA chip mRNA expression in yeast, energy system protein genes (Table 4)
Format: cell-based, Saccharomyces cerevisiae S288C
How it was run: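 S. cerevisiae S288C grown at 25° C in YPD were exposed in log phase for two hours to one toxic chemical at a growth-inhibiting, non-lethal concentration; untreated cells served as control. Poly(A) mRNA was reverse-transcribed with Cy3/Cy5-dUTP and hybridized to a whole-genome yeast DNA chip at 65° C for over 12 hours; values are fluorescence ratios versus untreated.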

C[S+](C)[O-] [(15), dimethylsulfoxide]
The level of expressed mRNA in the presence of chemical substance/The level of expressed mRNA in the absence of chemical substance (yeast gene YAL038W): 3.1 | The level of expressed mRNA in the presence of chemical substance/The level of expressed mRNA in the absence of chemical substance (yeast gene YAL054C): 0.9 | The level of expressed mRNA in the presence of chemical substance/The level of expressed mRNA in the absence of chemical substance (yeast gene YAL060W): 0.9 | The level of expressed mRNA in the presence of chemical substance/The level of expressed mRNA in the absence of chemical substance (yeast gene YBL058W, cells incubated two hours with the chemical substance): 1.8 | The level of expressed mRNA in the presence of chemical substance/The level of expressed mRNA in the absence of chemical substance (yeast gene YBR126C): 1.0 | The level of expressed mRNA in the presence of chemical substance/The level of expressed mRNA in the absence of chemical substance (yeast gene YBR145W): 1.2 | The level of expressed mRNA in the presence of chemical substance/The level of expressed mRNA in the absence of chemical substance (yeast gene YBR196C): 1.9 | The level of expressed mRNA in the presence of chemical substance/The level of expressed mRNA in the absence of chemical substance (yeast gene YBR299W): 0.6 | The level of expressed mRNA in the presence of chemical substance/The level of expressed mRNA in the absence of chemical substance (yeast gene YCL040W): 3.4 | The level of expressed mRNA in the presence of chemical substance/The level of expressed mRNA in the absence of chemical substance (yeast gene YCR005C): 0.7 | The level of expressed mRNA in the presence of chemical substance/The level of expressed mRNA in the absence of chemical substance (yeast gene YCR012W): 1.4 | The level of expressed mRNA in the presence of chemical substance/The level of expressed mRNA in the absence of chemical substance (yeast gene YCR107W): 4.8 | The level of expressed mRNA in the presence of chemical substance/The level of expressed mRNA in the absence of chemical substance (yeast gene YDL067C, cells incubated two hours with the chemical substance): 0.7 | The level of expressed mRNA in the presence of chemical substance/The level of expressed mRNA in the absence of chemical substance (yeast gene YDL078C, cells incubated two hours with the chemical substance): 0.5 | The level of expressed mRNA in the presence of chemical substance/The level of expressed mRNA in the absence of chemical substance (yeast gene YDL085W, cells incubated two hours with the chemical substance): 0.7 | The level of expressed mRNA in the presence of chemical substance/The level of expressed mRNA in the absence of chemical substance (yeast gene YDL174C): 0.6 | The level of expressed mRNA in the presence of chemical substance/The level of expressed mRNA in the absence of chemical substance (yeast gene YDL181W, cells incubated two hours with the chemical substance): 0.4 | The level of expressed mRNA in the presence of chemical substance/The level of expressed mRNA in the absence of chemical substance (yeast gene YDL243C): 4.2 | The level of expressed mRNA in the presence of chemical substance/The level of expressed mRNA in the absence of chemical substance (yeast gene YDR178W, cells incubated two hours with the chemical substance): 0.7 | The level of expressed mRNA in the presence of chemical substance/The level of expressed mRNA in the absence of chemical substance (yeast gene YDR231C): 1.0 | The level of expressed mRNA in the presence of chemical substance/The level of expressed mRNA in the absence of chemical substance (yeast gene YDR298C, cells incubated two hours with the chemical substance): 0.8 | The level of expressed mRNA in the presence of chemical substance/The level of expressed mRNA in the absence of chemical substance (yeast gene YDR380W): 2.4 | The level of expressed mRNA in the presence of chemical substance/The level of expressed mRNA in the absence of chemical substance (yeast gene YDR529C, cells incubated two hours with the chemical substance): 0.5 | The level of expressed mRNA in the presence of chemical substance/The level of expressed mRNA in the absence of chemical substance (yeast gene YEL020C): 1.4 | The level of expressed mRNA in the presence of chemical substance/The level of expressed mRNA in the absence of chemical substance (yeast gene YEL039C, cells incubated two hours with the chemical substance): 0.4 | The level of expressed mRNA in the presence of chemical substance/The level of expressed mRNA in the absence of chemical substance (yeast gene YEL071W, cells incubated two hours with the chemical substance): 1.6 | The level of expressed mRNA in the presence of chemical substance/The level of expressed mRNA in the absence of chemical substance (yeast gene YER061C, cells incubated two hours with the chemical substance): 0.8 | The level of expressed mRNA in the presence of chemical substance/The level of expressed mRNA in the absence of chemical substance (yeast gene YER178W): 1.8 | The level of expressed mRNA in the presence of chemical substance/The level of expressed mRNA in the absence of chemical substance (yeast gene YFL057C): 3.1 | The level of expressed mRNA in the presence of chemical substance/The level of expressed mRNA in the absence of chemical substance (yeast gene YFR053C): 0.6 | The level of expressed mRNA in the presence of chemical substance/The level of expressed mRNA in the absence of chemical substance (yeast gene YGL062W): 2.7 | The level of expressed mRNA in the presence of chemical substance/The level of expressed mRNA in the absence of chemical substance (yeast gene YGL191W, cells incubated two hours with the chemical substance): 0.7 | The level of expressed mRNA in the presence of chemical substance/The level of expressed mRNA in the absence of chemical substance (yeast gene YGL253W): 0.8 | The level of expressed mRNA in the presence of chemical substance/The level of expressed mRNA in the absence of chemical substance (yeast gene YGR008C): 1.5 | The level of expressed mRNA in the presence of chemical substance/The level of expressed mRNA in the absence of chemical substance (yeast gene YGR062C, cells incubated two hours with the chemical substance, 25° C., YPD medium): 0.5 | The level of expressed mRNA in the presence of chemical substance/The level of expressed mRNA in the absence of chemical substance (yeast gene YGR087C, cells incubated two hours with the chemical substance): 3.5 | The level of expressed mRNA in the presence of chemical substance/The level of expressed mRNA in the absence of chemical substance (yeast gene YGR174C, cells incubated two hours with the chemical substance): 0.7 | The level of expressed mRNA in the presence of chemical substance/The level of expressed mRNA in the absence of chemical substance (yeast gene YGR192C): 1.9 | The level of expressed mRNA in the presence of chemical substance/The level of expressed mRNA in the absence of chemical substance (yeast gene YGR207C): 0.6 | The level of expressed mRNA in the presence of chemical substance/The level of expressed mRNA in the absence of chemical substance (yeast gene YGR244C): 2.0 | The level of expressed mRNA in the presence of chemical substance/The level of expressed mRNA in the absence of chemical substance (yeast gene YGR254W): 2.4 | The level of expressed mRNA in the presence of chemical substance/The level of expressed mRNA in the absence of chemical substance (yeast gene YGR256W): 2.7 | The level of expressed mRNA in the presence of chemical substance/The level of expressed mRNA in the absence of chemical substance (yeast gene YHL008C): 1.8 | The level of expressed mRNA in the presence of chemical substance/The level of expressed mRNA in the absence of chemical substance (yeast gene YHR174W): 2.0 | The level of expressed mRNA in the presence of chemical substance/The level of expressed mRNA in the absence of chemical substance (yeast gene YHR179W): 2.7 | The level of expressed mRNA in the presence of chemical substance/The level of expressed mRNA in the absence of chemical substance (yeast gene YIL045W): 0.6 | The level of expressed mRNA in the presence of chemical substance/The level of expressed mRNA in the absence of chemical substance (yeast gene YIL111W): 1.1 | The level of expressed mRNA in the presence of chemical substance/The level of expressed mRNA in the absence of chemical substance (yeast gene YIL160C): 5.6 | The level of expressed mRNA in the presence of chemical substance/The level of expressed mRNA in the absence of chemical substance (yeast gene YIL172C): 1.4 | The level of expressed mRNA in the presence of chemical substance/The level of expressed mRNA in the absence of chemical substance (yeast gene YIR031C, cells incubated two hours with the chemical substance): 0.8
